We go through 16 compounds from patent US20090286806A1, “ISOXAZOLE DERIVATIVES AS CALCIUM CHANNEL BLOCKERS” (priority 2006, published 2009).

Like-named read-outs stand apart in the source and are kept apart here.

Test [1] addresses T1, rat brain N-type calcium channel subunits (α1B+α2δ+β1b cDNA subunits) (Rattus norvegicus, UniProt Q02294).
T1 construct: expressed in transfected cells; host or cells: HEK 293
Nature of the test: N-type calcium channel block, whole cell patch clamp in transfected HEK 293 cells. Format: cell-based. As to conditions: holding potential −80 mV to +10 mV. The procedure: N-type calcium channel blocking activity was assayed in human embryonic kidney cells, HEK 293, stably transfected with the rat brain N-type calcium channel subunits (α1B+α2δ+β1b cDNA subunits). Alternatively, N-type calcium channels (α1B+α2δ+β1b cDNA subunits), L-type channels (α1C+α2δ+β1b cDNA subunits) and P/Q-type channels (α1A+α2δ+β1b cDNA subunits) were transiently expressed in HEK 293 cells. Briefly, cells were cultured in Dulbecco's modified eagle medium (DMEM) supplemented with 10% fetal bovine serum, 200 U/ml penicillin and 0.2 mg/ml streptomycin at 37° C. with 5% CO2. At 85% confluency cells were split with 0.25% trypsin/1 mM EDTA and plated at 10% confluency on glass coverslips. At 12 hours the medium was replaced and the cells transiently transfected using a standard calcium phosphate protocol and the appropriate calcium channel cDNA's. Fresh DMEM was supplied and the cells transferred to 28° C./5% CO2. Cells were incubated for 1 to 2 days prior to whole cell recording.
Whole cell patch clamp experiments were performed using an Axopatch 200B amplifier (Axon Instruments, Burlingame, Calif.) linked to a personal computer equipped with pCLAMP software. The external and internal recording solutions contained, respectively, 5 mM BaCl2, 10 mM MgCl2, 10 mM HEPES, 40 mM TEACl, 10 mM glucose, 87.5 mM CsCl (pH 7.2) and 108 mM CsMS, 4 mM MgCl2, 9 mM EGTA, 9 mM HEPES (pH 7.2). Currents were typically elicited from a holding potential of −80 mV to +10 mV using Clampex software (Axon Instruments). Typically, currents were first elicited with low frequency stimulation (0.067 Hz) and allowed to stabilize prior to application of the compounds. The compounds were then applied during the low frequency pulse trains for two to three minutes to assess tonic block, and subsequently the pulse frequency was increased to 0.2 Hz to assess frequency dependent block. Data were analyzed using Clampfit (Axon Instruments) and SigmaPlot 4.0 (Jandel Scientific).

For test [2], the target named is T2, human α1G T-type channels (Homo sapiens, UniProt O43497).
T2 construct: expressed in transfected cells; host or cells: HEK cell lines
T2 sequence (O43497 whole entry): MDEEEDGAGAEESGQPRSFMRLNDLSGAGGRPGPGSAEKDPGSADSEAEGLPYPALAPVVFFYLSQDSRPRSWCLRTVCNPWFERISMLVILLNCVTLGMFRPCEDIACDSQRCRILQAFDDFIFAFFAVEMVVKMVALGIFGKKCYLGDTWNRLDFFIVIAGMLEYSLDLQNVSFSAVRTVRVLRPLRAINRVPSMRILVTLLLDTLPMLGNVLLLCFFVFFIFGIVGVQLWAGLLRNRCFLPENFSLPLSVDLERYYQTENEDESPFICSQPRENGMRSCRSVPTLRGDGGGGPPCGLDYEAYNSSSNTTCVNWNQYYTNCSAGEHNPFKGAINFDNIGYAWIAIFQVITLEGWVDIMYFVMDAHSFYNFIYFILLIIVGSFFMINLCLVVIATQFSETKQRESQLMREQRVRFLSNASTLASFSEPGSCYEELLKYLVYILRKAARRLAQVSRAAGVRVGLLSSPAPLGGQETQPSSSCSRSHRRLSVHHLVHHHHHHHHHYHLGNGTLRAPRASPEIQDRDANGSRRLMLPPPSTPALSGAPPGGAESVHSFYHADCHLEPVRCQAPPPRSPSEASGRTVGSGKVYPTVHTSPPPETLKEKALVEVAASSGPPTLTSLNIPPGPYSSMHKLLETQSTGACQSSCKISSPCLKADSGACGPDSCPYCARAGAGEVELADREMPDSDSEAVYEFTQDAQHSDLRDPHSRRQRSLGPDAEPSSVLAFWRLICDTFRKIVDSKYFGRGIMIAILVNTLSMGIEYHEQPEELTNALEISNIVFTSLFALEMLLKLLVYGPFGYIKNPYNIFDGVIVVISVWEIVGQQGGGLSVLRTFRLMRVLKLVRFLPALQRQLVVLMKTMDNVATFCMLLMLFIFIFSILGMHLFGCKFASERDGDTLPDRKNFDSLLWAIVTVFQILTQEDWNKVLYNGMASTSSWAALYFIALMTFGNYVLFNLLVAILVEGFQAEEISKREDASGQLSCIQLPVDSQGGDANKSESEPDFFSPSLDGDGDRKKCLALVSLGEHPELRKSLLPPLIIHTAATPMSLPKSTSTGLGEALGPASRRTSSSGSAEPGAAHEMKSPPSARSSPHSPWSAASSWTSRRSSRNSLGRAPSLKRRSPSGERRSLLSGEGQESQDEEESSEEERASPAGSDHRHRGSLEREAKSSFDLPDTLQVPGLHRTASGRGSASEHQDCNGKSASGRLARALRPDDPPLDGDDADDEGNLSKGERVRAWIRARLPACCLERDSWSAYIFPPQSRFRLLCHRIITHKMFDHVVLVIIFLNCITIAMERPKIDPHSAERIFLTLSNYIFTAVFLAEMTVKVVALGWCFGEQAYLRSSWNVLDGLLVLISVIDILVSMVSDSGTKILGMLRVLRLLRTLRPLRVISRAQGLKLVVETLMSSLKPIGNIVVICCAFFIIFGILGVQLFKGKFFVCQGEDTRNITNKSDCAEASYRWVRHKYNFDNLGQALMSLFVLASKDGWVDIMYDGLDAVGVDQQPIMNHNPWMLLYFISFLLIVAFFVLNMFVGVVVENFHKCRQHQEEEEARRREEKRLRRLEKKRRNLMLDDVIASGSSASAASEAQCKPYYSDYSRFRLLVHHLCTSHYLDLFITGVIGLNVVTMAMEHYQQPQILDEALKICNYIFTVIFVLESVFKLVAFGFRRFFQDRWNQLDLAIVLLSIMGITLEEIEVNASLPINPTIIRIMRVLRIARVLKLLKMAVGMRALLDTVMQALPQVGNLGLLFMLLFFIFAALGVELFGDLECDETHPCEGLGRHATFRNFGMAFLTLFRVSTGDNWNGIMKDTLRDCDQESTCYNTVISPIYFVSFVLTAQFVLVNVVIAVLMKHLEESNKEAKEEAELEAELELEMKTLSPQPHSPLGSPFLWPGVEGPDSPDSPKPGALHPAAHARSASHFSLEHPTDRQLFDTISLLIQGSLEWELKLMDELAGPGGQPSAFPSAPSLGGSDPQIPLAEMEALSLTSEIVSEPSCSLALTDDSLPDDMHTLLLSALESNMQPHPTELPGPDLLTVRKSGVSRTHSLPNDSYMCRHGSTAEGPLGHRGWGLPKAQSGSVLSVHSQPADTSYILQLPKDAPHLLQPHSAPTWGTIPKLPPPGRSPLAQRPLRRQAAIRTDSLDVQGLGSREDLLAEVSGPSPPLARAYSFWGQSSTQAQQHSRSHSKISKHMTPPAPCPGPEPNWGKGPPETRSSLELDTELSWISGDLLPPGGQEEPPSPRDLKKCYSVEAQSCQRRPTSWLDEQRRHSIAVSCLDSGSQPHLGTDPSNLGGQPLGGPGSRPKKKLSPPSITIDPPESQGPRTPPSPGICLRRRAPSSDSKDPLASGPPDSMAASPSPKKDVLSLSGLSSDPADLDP
The test is described as follows: T-type calcium channel block, whole-cell patch clamp in HEK cell lines. In kind it is cell-based. As to conditions: HEK cells. The procedure: Standard patch-clamp techniques were employed to identify blockers of T-type currents. Briefly, previously described HEK cell lines stably expressing human α1G T-type channels were used for all the recordings (passage #: 4-20, 37° C., 5% CO2). To obtain T-type currents, plastic dishes containing semi-confluent cells were positioned on the stage of a ZEISS AXIOVERT S100 microscope after replacing the culture medium with external solution (see below). Whole-cell patches were obtained using pipettes (borosilicate glass with filament, O.D.: 1.5 mm, I.D.: 0.86 mm, 10 cm length), fabricated on a SUTTER P-97 puller with resistance values of ˜5 M• (see below for internal solution).
In the non-inactivating protocol, the holding potential is set at −110 mV and with a pre-pulse at −100 mV for 1 second prior to the test pulse at −40 mV for 50 ms. […]
Test compounds were dissolved in external solution, 0.1-0.01% DMSO. After ˜10 min rest, they were applied by gravity close to the cell using a WPI microfil tubing. The “non-inactivated” pre-pulse was used to examine the resting block of a compound. The “inactivated” protocol was employed to study voltage-dependent block. However, the initial data shown below were mainly obtained using the non-inactivated protocol only. IC50 values are shown for various compounds of the invention in Table 5.
In general terms: Patch clamp records ionic current or voltage across a cell membrane.

In test [3] the test system is T-type over L-type channels. As to conditions: literature statement (Heady et al. 2001); cited from earlier work.
[4] abbreviates: low frequency stimulation 0.067 Hz (tonic block), read-out: IC50 @ 0.067 Hz.
Where [5] appears, read: pulse frequency 0.2 Hz (frequency dependent block), read-out: IC50 @ 0.2 Hz.
Setting [6] is: inactivation protocol (voltage-dependent block), read-out: IC50 @ −80 mV.
[7] abbreviates: non-inactivating protocol, pre-pulse −100 mV (resting block), read-out: IC50 @ −100 mV.

T1 sequence (Q02294 whole entry): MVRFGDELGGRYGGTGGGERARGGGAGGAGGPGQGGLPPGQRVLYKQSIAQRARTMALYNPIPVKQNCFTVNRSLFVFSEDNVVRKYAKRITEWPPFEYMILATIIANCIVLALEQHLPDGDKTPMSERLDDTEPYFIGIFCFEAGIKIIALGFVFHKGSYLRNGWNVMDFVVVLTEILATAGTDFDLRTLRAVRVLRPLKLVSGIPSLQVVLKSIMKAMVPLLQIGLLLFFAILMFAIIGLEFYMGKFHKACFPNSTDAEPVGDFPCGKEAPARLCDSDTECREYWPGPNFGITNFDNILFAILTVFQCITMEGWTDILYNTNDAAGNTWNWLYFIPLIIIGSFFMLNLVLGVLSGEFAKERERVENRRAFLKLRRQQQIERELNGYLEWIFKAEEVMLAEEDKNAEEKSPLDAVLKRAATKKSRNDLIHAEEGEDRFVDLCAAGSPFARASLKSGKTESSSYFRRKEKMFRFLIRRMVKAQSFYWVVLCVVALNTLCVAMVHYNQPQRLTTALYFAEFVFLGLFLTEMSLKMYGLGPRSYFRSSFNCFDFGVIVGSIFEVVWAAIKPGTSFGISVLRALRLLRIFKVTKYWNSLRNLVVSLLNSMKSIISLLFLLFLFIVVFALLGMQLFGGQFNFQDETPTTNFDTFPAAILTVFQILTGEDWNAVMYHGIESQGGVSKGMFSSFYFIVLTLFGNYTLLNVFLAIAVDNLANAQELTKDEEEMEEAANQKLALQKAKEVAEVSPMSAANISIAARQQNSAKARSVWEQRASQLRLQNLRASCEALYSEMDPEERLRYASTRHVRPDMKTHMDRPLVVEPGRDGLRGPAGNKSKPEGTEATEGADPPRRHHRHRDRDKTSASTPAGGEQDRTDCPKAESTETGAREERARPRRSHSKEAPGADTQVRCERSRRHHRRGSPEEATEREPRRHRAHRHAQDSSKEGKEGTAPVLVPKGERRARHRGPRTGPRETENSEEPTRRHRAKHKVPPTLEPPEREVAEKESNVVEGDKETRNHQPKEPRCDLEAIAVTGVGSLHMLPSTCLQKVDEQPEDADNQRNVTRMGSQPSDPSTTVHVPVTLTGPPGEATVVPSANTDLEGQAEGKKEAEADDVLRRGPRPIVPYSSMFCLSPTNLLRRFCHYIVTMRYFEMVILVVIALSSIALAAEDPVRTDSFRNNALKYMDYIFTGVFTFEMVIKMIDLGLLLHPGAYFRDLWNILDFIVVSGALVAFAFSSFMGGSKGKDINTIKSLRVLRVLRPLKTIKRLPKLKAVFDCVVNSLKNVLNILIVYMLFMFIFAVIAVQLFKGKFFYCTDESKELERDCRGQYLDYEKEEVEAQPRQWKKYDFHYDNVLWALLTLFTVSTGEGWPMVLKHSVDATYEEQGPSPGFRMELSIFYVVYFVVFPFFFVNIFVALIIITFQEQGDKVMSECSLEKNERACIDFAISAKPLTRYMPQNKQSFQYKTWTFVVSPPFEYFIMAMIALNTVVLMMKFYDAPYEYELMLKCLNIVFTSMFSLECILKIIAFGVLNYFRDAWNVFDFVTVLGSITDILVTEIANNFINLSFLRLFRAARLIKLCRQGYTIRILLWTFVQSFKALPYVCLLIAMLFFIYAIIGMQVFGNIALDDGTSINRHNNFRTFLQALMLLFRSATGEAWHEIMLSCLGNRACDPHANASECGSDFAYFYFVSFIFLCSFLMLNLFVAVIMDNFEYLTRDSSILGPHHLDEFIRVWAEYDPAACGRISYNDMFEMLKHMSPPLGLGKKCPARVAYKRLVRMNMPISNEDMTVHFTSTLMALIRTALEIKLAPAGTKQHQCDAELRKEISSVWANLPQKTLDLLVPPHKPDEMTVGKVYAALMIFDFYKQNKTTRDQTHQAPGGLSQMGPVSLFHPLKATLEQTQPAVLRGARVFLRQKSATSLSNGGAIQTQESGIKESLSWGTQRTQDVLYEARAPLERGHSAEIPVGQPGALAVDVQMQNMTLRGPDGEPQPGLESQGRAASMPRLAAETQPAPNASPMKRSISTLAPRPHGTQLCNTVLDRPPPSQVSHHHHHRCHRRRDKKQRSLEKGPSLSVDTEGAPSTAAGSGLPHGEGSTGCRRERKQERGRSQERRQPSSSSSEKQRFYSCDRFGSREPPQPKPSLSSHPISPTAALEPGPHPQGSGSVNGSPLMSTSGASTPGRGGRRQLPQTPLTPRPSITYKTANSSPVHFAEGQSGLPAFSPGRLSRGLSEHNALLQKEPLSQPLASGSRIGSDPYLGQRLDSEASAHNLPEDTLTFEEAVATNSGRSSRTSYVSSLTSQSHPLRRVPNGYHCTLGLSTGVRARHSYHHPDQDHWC

Broadly, the IC50 is the point on the concentration scale where inhibition reaches its midpoint. As for `COc1ccccc1-c1cc(CN2CCN(C(c3ccccc3)c3ccccc3)CC2)on1` [Compound 5, 5-((4-benzhydry1piperazin-1-yl)methyl)-3-(2-methoxyphenyl)isoxazole], the results for the IC50 in test [1] (setting [4]) and in test [1] (setting [5]) were 680 nM and 340 nM, respectively.

For `O=C(c1cc(-c2ccccc2F)no1)N1CCN(C(c2ccccc2)c2ccc(Cl)cc2Cl)CC1` (stereo not drawn) [Compound 15, (4-((2,4-dichlorophenyl)(phenyl)methyl)piperazin-1-yl)(3-(2-fluorophenyl)isoxazol-5-yl)methanone], the IC50 in test [1] (setting [4]) worked out at 6470 nM; in test [1] (setting [5]) it was 3380 nM.

Take `Cc1ccc(C(c2ccccc2)N2CCN(Cc3cc(-c4ccccc4F)no3)CC2)c(C)c1` (stereo not drawn) [Compound 12, 5-((4-((2,4-dimethylphenyl)(phenyl)methyl)piperazin-1-yl)methyl)-3-(2-fluorophenyl)isoxazole]: the IC50 in test [1] (setting [4]) is 950 nM; in test [1] (setting [5]), 570 nM; in test [2] (setting [6]), 830 nM; in test [2] (setting [7]) it was 3690 nM.

On to `O=C(c1cc(-c2ccccc2)no1)N1CCN(C(c2ccccc2)c2ccccc2)CC1` [Compound 1, (4-benzhydrylpiperazin-1-yl)(3-phenylisoxazol-5-yl)methanone], for which the IC50 in test [1] (setting [4]) is 650 nM; in test [1] (setting [5]), 290 nM; in test [2] (setting [6]), 1900 nM; in test [2] (setting [7]), above 10000 nM.

`Clc1ccc(C(c2ccccc2)N2CCN(Cc3cc(-c4ccccc4)no3)CC2)c(Cl)c1` (stereo not drawn) [Compound 14, 5-((4-((2,4-dichlorophenyl)(phenyl)methyl)piperazin-1-yl)methyl)-3-phenylisoxazole]: the IC50 in test [1] (setting [4]) was 22200 nM; in test [1] (setting [5]), 2240 nM; in test [2] (setting [6]) it was 5530 nM; in test [2] (setting [7]) it was above 16500 nM.

`O=C(CC(c1ccccc1)c1ccccc1)N1CCN(Cc2cc(-c3ccccc3)no2)CC1` [Compound 9, 3,3-diphenyl-1-(4-((3-phenylisoxazol-5-yl)methyl)piperazin-1-yl)propan-1-one]: the half-maximal inhibitory concentration (IC50) in test [1] (setting [4]) was 2800 nM; in test [1] (setting [5]) it was 1200 nM; in test [2] (setting [6]), 1700 nM; in test [2] (setting [7]), above 10000 nM.

Regarding `O=C(CC(c1ccccc1)c1ccccc1)N1CCN(Cc2cc(-c3ccccc3F)no2)CC1` [Compound 7, 1-(4-((3-(2-fluorophenyl)isoxazol-5-yl)methyl)piperazin-1-yl)-3,3-diphenylpropan-1-one], the IC50 in test [1] (setting [4]) was 520 nM; in test [1] (setting [5]), 330 nM.

As for `Cc1ccc(C(c2ccccc2)N2CCN(Cc3cc(-c4ccccc4)no3)CC2)c(C)c1` (stereo not drawn) [Compound 10, 5-((4-((2,4-dimethylphenyl)(phenyl)methyl)piperazin-1-yl)methyl)-3-phenylisoxazole], the IC50 in test [1] (setting [4]) was 1070 nM; in test [1] (setting [5]), 400 nM; in test [2] (setting [6]) it was 2180 nM; in test [2] (setting [7]) it was 9210 nM.

For the compound `COc1ccccc1-c1cc(CN2CCN(C(=O)CC(c3ccccc3)c3ccccc3)CC2)on1` [Compound 8, 1-(4-((3-(2-methoxyphenyl)isoxazol-5-yl)methyl)piperazin-1-yl)-3,3-diphenylpropan-1-one], the figures for the IC50 in test [1] (setting [4]) and in test [1] (setting [5]) were 600 nM and 290 nM, respectively.

Take `COc1ccccc1-c1cc(C(=O)N2CCN(C(c3ccccc3)c3ccccc3)CC2)on1` [Compound 4, (4-benzhydrylpiperazin-1-yl)(3-(2-methoxyphenyl)isoxazol-5-yl)methanone]: the values for the IC50 in test [1] (setting [4]) and in test [1] (setting [5]) were 2990 nM and 1490 nM, respectively.

As for `Fc1ccccc1-c1cc(CN2CCN(C(c3ccccc3)c3ccccc3)CC2)on1` [Compound 6, 5-((4-benzhydry1piperazin-1-yl)methyl)-3-(2-fluorophenyl)isoxazole], the IC50 worked out at 3400 nM in test [1] (setting [4]) and 1100 nM in test [1] (setting [5]).

For the compound `COCC(=O)O[C@]1(CCN(C)CCCc2nc3ccccc3[nH]2)CCc2cc(F)ccc2[C@@H]1C(C)C` [Mibefradil], the “selective for T-type over L-type channels” value in test [3] is 10-30 fold.

As for `O=C(c1cc(-c2ccccc2F)no1)N1CCN(C(c2ccccc2)c2ccccc2)CC1` [Compound 3, (4-benzhydrylpiperazin-1-yl)(3-(2-fluorophenyl)isoxazol-5-yl)methanone], the IC50 is 800 nM in test [1] (setting [4]) and 370 nM in test [1] (setting [5]).

Turning to `Fc1ccccc1-c1cc(CN2CCN(C(c3ccccc3)c3ccc(Cl)cc3Cl)CC2)on1` (stereo not drawn) [Compound 16, 5-((4-((2,4-dichlorophenyl)(phenyl)methyl)piperazin-1-yl)methyl)-3-(2-fluorophenyl) isoxazole], the IC50 in test [1] (setting [4]) was 3150 nM; in test [1] (setting [5]), 1960 nM.

In the case of `Cc1ccc(C(c2ccccc2)N2CCN(C(=O)c3cc(-c4ccccc4F)no3)CC2)c(C)c1` (stereo not drawn) [Compound 11, (4-((2,4-dimethylphenyl)(phenyl)methyl)piperazin-1-yl)(3-(2-fluorophenyl)isoxazol-5-yl)methanone], the IC50 in test [1] (setting [4]) was determined as 2180 nM; in test [1] (setting [5]) it was 1130 nM; in test [2] (setting [6]), 2770 nM; in test [2] (setting [7]), 14800 nM.

For `c1ccc(-c2cc(CN3CCN(C(c4ccccc4)c4ccccc4)CC3)on2)cc1` [Compound 2, 5-((4-benzhydrylpiperazin-1-yl)methyl)-3-phenylisoxazole], the half-inhibitory concentration (IC50) in test [1] (setting [4]) was 1700 nM; in test [1] (setting [5]), 670 nM; in test [2] (setting [6]) it was 350 nM; in test [2] (setting [7]), 1600 nM.
